Like-named read-outs stand apart in the source and are kept apart here.
What was measured:
E. coli GmhA = E. coli GmhA (Escherichia coli, UniProt P63224); format: biochemical; conditions: for IC50: E. coli GmhA, luminescence assay, mean ± SD of at least 3 independent experiments
Experimental: The assay buffer “AB” contained 50 mM HEPES, pH 7.5, 1 mM MnCl2, 25 mM KCl, 0.012% Triton-X100, 1 mM dithiothreitol (DTT), and 0.1 μM myelin basic protein (MBP, Sigma, ref M1891). The following components were added in a white polystyrene Costar plate up to a final volume of 30 μL: 10 μL of inhibitor dissolved in DMSO/water 50/50 and 20 μL of GmhA of E. coli in AB. After 30 min of preincubation at room temperature, 30 μL of the substrate mixture in AB were added in each well to give a final volume of 60 μL. […] After 30 min of incubation at room temperature, 100 μL of the revelation mix were added to a final volume of 160 μL, including the following constituents at the respective final concentrations: 10,000 light units/mL luciferase (Sigma), 20 μM D-luciferin (Sigma), and 100 μM N-acetylcysteamine (Aldrich). Luminescence intensity was immediately measured on a Luminoskan instrument (Thermofisher) and converted into inhibition percentages. For IC50 determinations, the inhibitor was tested at 6 to 10 different concentrations, and the related inhibitions were fitted using XLFit 5 (IDBS) to a classical Langmuir equilibrium model with Hill slope, according to the equation: %inhibition = 100 c^n/(c^n + IC50^n), where c is the compound concentration and n is the Hill coefficient.

[1] = test system: E. coli C7 (018:K1:H7) LPS biosynthesis; assay: Inhibition of bacterial LPS biosynthesis (silver-stained LPS SDS-PAGE); format: cell-based; conditions: for EC50: Escherichia coli
Experimental: The compounds to be tested were prepared in deionized water/DMSO (50/50) solutions and added (25 μL) in sterile culture microtubes. The test bacterial isolate was isolated on tryptic soy agar (TSA) overnight. Isolated colonies were cultured in 10 mL of LB medium at 37 °C up to an OD of typically 0.15. These exponentially growing bacteria were finally diluted to 5 × 10^5 cfu/mL and added in each well (225 μL) for incubation with the compounds at 37 °C for approximately 5 h, up to an OD of ≈0.2–0.4. Some test compounds, e.g., phospho-sugars are actively transported into the bacterial cytosol via the phospho-sugar transporter UhpT (Figure S3). 2.5 μL portion of a 10 mM water solution of glucose-6-phosphate (G6P, 100 μM final concentration, from Sigma) was added in the culture tube in order to induce UhpT expression. LPS extraction: Bacterial cultures were normalized via OD determination, pelleted, and washed with 1 mL of phosphate-buffered-saline (PBS). The pellets were then denatured for 10 min at 95–100 °C in 50 μL of 0.2% sodium dodecyl sulfate (SDS), β-mercaptoethanol 1%, glycerol 36%, Tris 30 mM, pH 7.4, and bromophenol blue 0.001%. Samples were cooled down to room temperature, supplemented with 1.5 μL of proteinase K at 20 mg/mL, incubated for 1 h at 55 °C, and centrifuged for 30 min at 13,000 rpm at 25 °C. The resulting supernatant, containing LPS, was finally analyzed by SDS-PAGE electrophoresis. LPS SDS-PAGE electrophoresis: Polyacrylamide gels (16%/4% acrylamide for separation and concentration, respectively) were prepared, loaded with 8 μL of LPS extracts, and migrated. Silver staining: Gels were incubated overnight in 5% acetic acid/40% ethanol/deionized water, treated by 1% periodic acid/5% acetic acid for 15 min, washed 4 times for 10 min in deionized water, and finally incubated for 18 min in the dark in a silver nitrate solution composed of 56 mL of 0.1 M NaOH (56 mL), 33% aq ammonia (4 mL), 5% AgNO3 (45 mL), and deionized water (195 mL). Gels were then washed extensively in deionized water for 30 min and incubated for 10–15 min (up to LPS band appearance) in the revelation mix composed of 300 mL of deionized water (300 mL), 36.5% formaldehyde (0.3 mL, Fluka), and 2.3 M citric acid (0.1 mL). The revelation was stopped by incubating the gels in 10% acetic acid for 5 min. Gels were finally washed in deionized water, numerized with a Samsung PL51 camera, and analyzed by ImageJ software. The percentage of inhibition of LPS heptosylation was defined as the relative area of the Re-LPS band compared to the cumulated areas of Re-LPS and Core-LPS bands.

E. coli C7 [2] = assay: Sensitization to killing by the complement of human serum; format: cell-based; conditions: E. coli C7 grown 5 h with 0.3 and 1 mM compound 24; in 30 min
Experimental: The E. coli C7 wild type and gmhA-deleted strains were isolated from TSA plates and grown overnight in 10 mL of LB broth at 35 °C. […] After 5 h of incubation under shaking at 37 °C, the bacterial inoculum was adjusted to 10^5 cfu/mL in 20% LB broth mixed with 80% human serum (Biopredic) and filtered on 0.45 μm pore size membranes and used as such, or further heated for 30 min at 56 °C for complement deactivation. A volume of 250 μL of each condition was finally incubated at 37 °C in microtubes, and aliquots of 10 μL were sampled at 0, 15, 30, 60, 120, and 180 min for bacterial enumeration in duplicate.

E. coli C7 [3] = assay: MIC of the compounds alone on E. coli C7; format: cell-based
Experimental: Then, we investigated the cytotoxicity and the ability of such inhibitors to potentiate the antimicrobial activity of macrolide and rifamycin antibiotics.
(§1) The compound to be tested was diluted in 50 mM HEPES buffer (pH 7.4) from 10 mM stock solution in DMSO. Five microliters of compound dilution or buffer were distributed in a sterile clear round-bottom 96-well polystyrene microplate (Corning). Five microliters of serial 2-fold dilutions of reference antibiotics [Erythromycin (Fluka), Rifampicin (Fluka)] in DMSO were added. An exponentially growing preculture of E. coli C7 (O18:K1:H7) in LB was diluted to 10^4 cfu/mL and supplemented with 100 μM G6P, and 90 μL of this suspension were added to the microplates. After overnight incubation at 37 °C, the MIC of the antibiotics were determined for each test compound concentration as the lowest antibiotic concentration for which no bacterial pellet is visible without magnification.

HepG2 cytotoxicity = format: cell-based; conditions: human; n = 2
Experimental: HepG2 cells (LGC Promochem, ref HB-8065) in EMEM medium supplemented with fetal bovine serum (10%), Ampicillin (100 mg/L), and Streptomycin (100 mg/L) were plated on cell culture plates (Costar 3596, 2 × 10^4 cells/well) and incubated overnight at 37 °C in 5% CO2. The culture medium was then aspirated and replaced by supplemented EMEM (210 μL including 2% DMSO) containing dilutions of compounds. Plates were incubated overnight at 37 °C in 5% CO2. Cell viability was determined by the Celltiter Aqueous One Cell Proliferation Assay (G3581–80, Promega) according to the manufacturer’s recommendations, using a Multiskan absorption reader (490 nm).

E. coli C7 (O18:K1:H7) [4] = assay: MIC determination of antibiotics combined with a GmhA inhibitor; format: cell-based; conditions: Escherichia coli, n = 1
Experimental: as §1

E. coli C7 gmhA- = assay: Complementation of E. coli C7-gmhA- by H7P (LPS SDS-PAGE, UhpT transport); format: cell-based
Experimental: Figure S3: Role of UhpT phospho-sugar transporter in the transport of D-glycero-D-manno-heptose
7-phosphate (H7P). Complementation of E. coli C7-gmhA- by the GmhA product H7P. Silver-stained
LPS SDS-PAGE of E. coli C7 WT (lane 1) or gmhA- (lanes 2 -4). Culture in presence of 300 µM H7P (lane
100 µM glucose -6-phosphate (G6P) allows a strong transport of H7P, as evidenced by the restoration
(1 picture or pasted object on this page, not shown here)

E. coli C7 (O18:K1:H7) [5] = assay: Time-kill kinetics of rifampicin in combination with compound 17; format: cell-based; conditions: 17 300 μM alone or rifampicin 1 mg/L alone
Experimental: Rifampicin (Fluka) was diluted in DMSO, and the compound to be tested was diluted in water from 50 mM stock solution in 50 mM HEPES buffer, pH 7.4. Ten microliter of DMSO was distributed in sterile 1.5 mL polypropylene microtubes (Eppendorf). 2.5 μL of compound dilution or water, 2.5 μL of Rifampicin or DMSO, 2.5 μL of 10 mM G6P in water (100 μM final concentration), and 230 μL of LB were added to the microtubes. E. coli C7 (O18:K1:H7) was grown in 5 mL of LB broth at 37 °C until mid-log phase. The suspension was then diluted in LB to obtain a 100× inoculum of 5 × 10^7 cfu/mL, 2.5 μL of which were added to each microtube (5 × 10^5 cfu/mL final inoculum). The microtubes were incubated at 37 °C, and aliquots of 10 μL were sampled at 0, 2, 4, 6, 8, and 24 h for bacterial enumeration in duplicate.

wild-type E. coli strain = test system: wild-type E. coli strain; parameters: method as in PMID 21922563; conditions: cited from earlier work
GmhA = test system: GmhA; parameters: method as in PMID 21922563; conditions: cited from earlier work
[6] = E. coli C7 LPS biosynthesis by SDS-PAGE, mean ± SD of 3 experiments for 17 and 24, n = 1 for others, read-out: EC50
[7] = antibiotic alone, E. coli C7, 100 μM G6P, read-out: MIC alone
[8] = antibiotic combined with 100 μM 17, E. coli C7, 100 μM G6P, read-out: MIC +100 μM cpd 17

E. coli GmhA, sequence (P63224 whole entry): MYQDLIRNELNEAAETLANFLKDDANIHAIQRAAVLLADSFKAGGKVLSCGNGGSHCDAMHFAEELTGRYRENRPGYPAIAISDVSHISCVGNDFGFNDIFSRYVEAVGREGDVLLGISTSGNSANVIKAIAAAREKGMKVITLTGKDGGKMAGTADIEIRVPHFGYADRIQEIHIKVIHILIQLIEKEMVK

O=CN(O)C[C@H](O)[C@H](O)[C@H](O)CP(=O)(O)O [Compound 20]
IC50 (E. coli GmhA): 2200 ± 500 nM | EC50 [1, 6]: > 3000 µM

O=CN(O)C[C@H](O)[C@H](O)[C@H](O)CCP(=O)([O-])O.[Na+] [Compound 24]
reduction of the bacterial load in 80% human serum (E. coli C7 [2]): 3 log | MIC (E. coli C7 [3]; Escherichia coli, C7, read-out: MIC E. coli C7): > 1000 µM | MIC (E. coli C7 [3]; compound alone, n = 2, read-out: MIC E. coli C7): >1000 µM | EC50 [1]: 22 ± 4 µM | CC50 (HepG2 cytotoxicity): > 1 mM

O=CN(O)C[C@H](O)[C@H](O)[C@H](O)/C=C/P(=O)(O)O [Compound 25]
IC50 (E. coli GmhA): 150 ± 30 nM | EC50 [1]: 1300 µM

O=CN(O)C[C@H](O)[C@H](O)[C@H](O)C(O)C(O)P(=O)(O)O (some centres unmarked) [Compound 27]
IC50 (E. coli GmhA): 2300 ± 600 nM | EC50 [1]: > 3000 µM

O=CN(O)C[C@H](O)[C@H](O)[C@H](O)C(O)CP(=O)(O)O (some centres unmarked) [Compound 31]
IC50 (E. coli GmhA): 250 ± 20 nM | EC50 [1]: 590 µM

O=CN(O)C[C@H](O)[C@H](O)[C@H](O)CC(O)P(=O)(O)O (some centres unmarked) [Compound 41]
IC50 (E. coli GmhA): 75 ± 9 nM | EC50 [1]: 750 µM

O=CN(O)C[C@@H](O)[C@H](O)[C@H](O)CCP(=O)(O)O [Compound 54]
IC50 (E. coli GmhA): 9200 ± 1600 nM | EC50 [1]: > 300 µM

O=CN(O)C[C@H](O)C[C@H](O)CCP(=O)(O)O [Compound 68]
IC50 (E. coli GmhA): 3000 ± 200 nM | EC50 [1, 6]: 1200 µM

O=CN(O)C[C@H](O)[C@H](O)[C@H](O)CC(F)P(=O)([O-])O.[Na+] (some centres unmarked) [Compound 76]
GmhA inhibition IC50 (in words) (E. coli GmhA): low nanomolar range | EC50 [1]: 76 µM

O=CN(O)C[C@H](O)[C@H](O)[C@H](O)CC(F)(F)P(=O)(O)O [Compound 84]
EC50 [1]: 510 µM

O=C(NO)[C@@H](O)[C@H](O)[C@H](O)[C@H](O)COP(=O)(O)O [Compound 96]
GmhA inhibition IC50 (in words) (E. coli GmhA): low nanomolar range | IC50 (E. coli GmhA): 16 ± 6 nM | concentration above which bacterial growth is affected ([1]; E. coli culture of the LPS assay): > 100 µM | EC50 [1, 6]: > 100 µM

CC[C@H]1OC(=O)[C@H](C)[C@@H](O[C@H]2C[C@@](C)(OC)[C@@H](O)[C@H](C)O2)[C@H](C)[C@@H](O[C@@H]2O[C@H](C)C[C@H](N(C)C)[C@H]2O)[C@](C)(O)C[C@@H](C)C(=O)[C@H](C)[C@@H](O)[C@]1(C)O [Erythromycin]
MIC (E. coli C7 (O18:K1:H7) [4]; [7]): 32 µg/mL | MIC (E. coli C7 (O18:K1:H7) [4]; [8]): 1 µg/mL

O=C[C@@H](O)[C@@H](O)[C@H](O)[C@H](O)[C@H](O)COP(=O)(O)O [H7P, D-glycero-D-manno-heptose 7-phosphate]
LPS profile restoration in gmhA- strain (E. coli C7 gmhA-; 300 µM H7P, without G6P (lane 3)): restores some full length LPS | LPS profile restoration in gmhA- strain (E. coli C7 gmhA-; H7P with UhpT induction by 100 µM glucose-6-phosphate (lane 4)): full LPS profile

CO[C@H]1/C=C/O[C@@]2(C)Oc3c(C)c(O)c4c(O)c(c(/C=N/N5CCN(C)CC5)c(O)c4c3C2=O)NC(=O)/C(C)=C\C=C\[C@H](C)[C@H](O)[C@@H](C)[C@@H](O)[C@@H](C)[C@H](OC(C)=O)[C@@H]1C [Rifampicin]
effect on bacterial growth, compound alone (E. coli C7 (O18:K1:H7) [5]): did not alter at all the bacterial growth | MIC (E. coli C7 (O18:K1:H7) [4]; [7]): 4 µg/mL | MIC (E. coli C7 (O18:K1:H7) [4]; [8]): 0.25 µg/mL

COC1O[C@H]([C@H](O)COP(=O)(O)O)[C@@H](O)[C@H](O)[C@H]1O (stereo partly drawn) [methyl 7-O-phosphoryl-D-glycero-D-gluco-heptopyranoside]
heptosylation inhibition at 1 mM (wild-type E. coli strain): too high to demonstrate heptosylation inhibition | IC50 values (in words) (GmhA): low micromolar range

Reference: publication PMC11056994, “Potentiating Activity of GmhA Inhibitors on Gram-Negative Bacteria” (Journal of Medicinal Chemistry, 2024)
